Measured values taken from patent publication US7531646B2, “β-D-ribosidase activity indicators with a chromogenic substrate” (priority 2001, dated 2009).
Structures can show the parent of a compound that is named as a salt.

How the values were obtained:
[1] = system: Streptococcus milleri; experiment: Substrate hydrolysis on Columbia agar; format: cell-based; details: Streptococcus milleri wild; 300 mg/l; 18 hours
[2] = system: Streptococcus agalactiae; experiment: Substrate hydrolysis on Columbia agar; format: cell-based; details: Streptococcus agalactiae NCTC 8181; 300 mg/l; 18 hours
[3] = system: M. morganii; experiment: Substrate hydrolysis on Columbia agar; format: cell-based; details: 300 mg/l, 18 hours
[4] = system: Listeria ivanovii; experiment: Substrate hydrolysis on Columbia agar; format: cell-based; details: Listeria ivanovii PHLS wild; 300 mg/l; 18 hours
[5] = system: Enterococcus gellinarum; experiment: Substrate hydrolysis on Columbia agar; format: cell-based; details: Enterococcus gellinarum NCTC 11428; 300 mg/l; 18 hours
[6] = system: Salmonella alachia; experiment: Substrate hydrolysis on Columbia agar; format: cell-based; details: Salmonella alachia SAX 60; 300 mg/l; 18 hours
From the text: (§1) This was achieved using a densitometer.
(§2) The same method was used as in Example 1.

[7] = system: Vibrio mimicus; experiment: Substrate hydrolysis on Columbia agar; format: cell-based; details: Vibrio mimicus NCTC 11435; 300 mg/l; 18 hours
From the text: as §1, §2

[8] = system: Salmonella motevideo; experiment: Substrate hydrolysis on Columbia agar; format: cell-based; details: Salmonella motevideo SAX 55; 300 mg/l; 18 hours
From the text: as §1, §2

[9] = system: Shigella sonnei; experiment: Substrate hydrolysis on Columbia agar; format: cell-based; details: 300 mg/l, 18 hours
From the text: as §1, §2

[10] = system: Shigella flexneri; experiment: Substrate hydrolysis on Columbia agar; format: cell-based; details: 300 mg/l, 18 hours
From the text: as §1, §2

[11] = system: Shigella boydii; experiment: Substrate hydrolysis on Columbia agar; format: cell-based; details: 300 mg/l, 18 hours
From the text: as §1, §2

[12] = system: Vibrio furnissii; experiment: Substrate hydrolysis on Columbia agar; format: cell-based; details: Vibrio furnissii NCTC 11218; 300 mg/l; 18 hours
[13] = system: Serratia spp.; experiment: Substrate hydrolysis on Columbia agar; format: cell-based; details: 300 mg/l, 18 hours
[14] = system: Salmonella hadar; experiment: Substrate hydrolysis on Columbia agar; format: cell-based; details: Salmonella hadar SAX 57; 300 mg/l; 18 hours
[15] = system: Vibrio hollisae; experiment: Substrate hydrolysis on Columbia agar; format: cell-based; details: Vibrio hollisae NCTC 11640; 300 mg/l; 18 hours
[16] = system: E. coli; experiment: Substrate hydrolysis on Columbia agar; format: cell-based; details: 300 mg/l, 18 hours
[17] = system: Gram positive bacteria; experiment: Substrate hydrolysis on Columbia agar, summary of screen; format: cell-based; details: of 74 Gram positive bacteria tested; 300 mg/l; 18 hours
[18] = system: Vibrio anguillarum; experiment: Substrate hydrolysis on Columbia agar; format: cell-based; details: Vibrio anguillarum NCTC 12159; 300 mg/l; 18 hours
[19] = system: Enterococcus casseflavus; experiment: Substrate hydrolysis on Columbia agar; format: cell-based; details: Enterococcus casseflavus NCTC 12361; 300 mg/l; 18 hours
[20] = system: Gram negative bacteria; experiment: Substrate hydrolysis on Columbia agar, summary of screen; format: cell-based
[21] = system: Streptococcus pneumoniae; experiment: Substrate hydrolysis on Columbia agar; format: cell-based; details: Streptococcus pneumoniae NCTC 7465; 300 mg/l; 18 hours
[22] = system: Streptococcus oralis; experiment: Substrate hydrolysis on Columbia agar; format: cell-based; details: Streptococcus oralis NCTC11427; 300 mg/l; 18 hours
[23] = system: Salmonella oranienburg; experiment: Substrate hydrolysis on Columbia agar; format: cell-based; details: Salmonella oranienburg SAX 56; 300 mg/l; 18 hours
[24] = system: Streptococcus salivarius; experiment: Substrate hydrolysis on Columbia agar; format: cell-based; details: Streptococcus salivarius NCTC 8618; 300 mg/l; 18 hours
[25] = system: Serratia marcescens; experiment: Substrate hydrolysis on Columbia agar; format: cell-based; details: Serratia marcescens NCTC 10211; 300 mg/l; 18 hours
[26] = system: C. diphtheriae; experiment: Substrate hydrolysis on Columbia agar; format: cell-based, Corynebacterium diphtheriae; details: 300 mg/l, 18 hours
[27] = system: Staphylococcus saprophyticus; experiment: Substrate hydrolysis on Columbia agar; format: cell-based; details: 300 mg/l, 18 hours
[28] = system: Salmonella panama; experiment: Substrate hydrolysis on Columbia agar; format: cell-based; details: Salmonella panama SAX 58; 300 mg/l; 18 hours
[29] = system: Vibrio metschnikovii; experiment: Substrate hydrolysis on Columbia agar; format: cell-based; details: Vibrio metschnikovii NCTC 8443; 300 mg/l; 18 hours
[30] = system: Vibrio cincinnatiensis; experiment: Substrate hydrolysis on Columbia agar; format: cell-based; details: Vibrio cincinnatiensis NCTC 12012; 300 mg/l; 18 hours

O=c1cc(-c2ccc(OC3OC(CO)C(O)C3O)c(O)c2)oc2ccccc12 [DHF-riboside, 3′,4′-dihydroxyflavone-4′-β-D-ribofuranoside Sodium Salt] was tested, and the “Hydrolysis by Gram positive organisms” value [1] was “−”, the “Hydrolysis by Gram positive organisms” value [2] was “−” and the “Hydrolysis by Gram negative bacteria” value ([3]; M. morganii MMO 1) was “+”. The “Hydrolysis by Gram negative bacteria” value ([3]; M. morganii MMO 2) was “+”, the “Hydrolysis by Gram negative bacteria” value ([3]; M. morganii NCTC 235) was “−” and the “Hydrolysis by Gram positive organisms” value [4] was “+”. The “Hydrolysis by Gram positive organisms” value [5] was “+”, the “Hydrolysis by Gram negative bacteria” value [6] was “++” and the “Hydrolysis by Gram negative bacteria” value [7] was “−”. For the same molecule, the “Hydrolysis by Gram negative bacteria” value [8] was “++”, the “Hydrolysis by Gram negative bacteria” value ([9]; Shigella sonnei NCTC 8219) was “++” and the “Hydrolysis by Gram negative bacteria” value ([9]; Shigella sonnei NCTC 8574) was “++”. The “Hydrolysis by Gram negative bacteria” value ([9]; Shigella sonnei NCTC 8586) was “++”, the “Hydrolysis by Gram negative bacteria” value ([9]; Shigella sonnei NCTC 9774) was “++” and the “Hydrolysis by Gram negative bacteria” value ([9]; Shigella sonnei NCTC 10352) was “++”. For the same molecule, the “Hydrolysis by Gram negative bacteria” value ([10]; Shigella flexneri NCTC 8192) was “++”, the “Hydrolysis by Gram negative bacteria” value ([10]; Shigella flexneri NCTC 9723) was “++” and the “Hydrolysis by Gram negative bacteria” value ([10]; Shigella flexneri NCTC 9780) was “++”. For the same molecule, the “Hydrolysis by Gram negative bacteria” value ([11]; Shigella boydii NCTC 9327) was “++”, the “Hydrolysis by Gram negative bacteria” value ([11]; Shigella boydii NCTC 9732) was “++” and the “Hydrolysis by Gram negative bacteria” value ([11]; Shigella boydii NCTC 9850) was “++”. The “Hydrolysis by Gram negative bacteria” value [12] was “−”, the “Hydrolysis by Gram negative bacteria” value ([13]; Serratia spp. SEX 1) was “++” and the “Hydrolysis by Gram negative bacteria” value ([13]; Serratia spp. SEX 2) was “++”. For the same molecule, the “Hydrolysis by Gram negative bacteria” value ([13]; Serratia spp. SEX 3) was “++”, the “Hydrolysis by Gram negative bacteria” value ([13]; Serratia spp. SEX 4) was “++” and the “Hydrolysis by Gram negative bacteria” value [14] was “++”. The “Hydrolysis by Gram negative bacteria” value [15] was “−”, the “Hydrolysis by Gram negative bacteria” value ([16]; E. coli ECO 2) was “++” and the “Hydrolysis by Gram negative bacteria” value ([16]; E. coli ECO 3) was “++”. For the same molecule, the “Hydrolysis by Gram negative bacteria” value ([16]; E. coli ECO 4) was “++”, the “Hydrolysis by Gram negative bacteria” value ([16]; E. coli ECO 5) was “++” and the “Hydrolysis by Gram negative bacteria” value ([16]; E. coli ECO 6) was “++”. The “Hydrolysis by Gram negative bacteria” value ([16]; E. coli ECO 7) was “++”, the “Hydrolysis by Gram negative bacteria” value ([16]; E. coli ECO 8) was “++” and the “Hydrolysis by Gram negative bacteria” value ([16]; E. coli ECO 9) was “++”. For the same molecule, the “Hydrolysis by Gram negative bacteria” value ([16]; E. coli ECO 10) was “++”, the “Hydrolysis by Gram negative bacteria” value ([16]; E. coli ECO 11) was “++” and the “Hydrolysis by Gram negative bacteria” value ([16]; E. coli ECO 12) was “++”. The “Hydrolysis by Gram negative bacteria” value ([16]; E. coli NCTC 10418) was “++”, the “Gram positive bacteria tested that hydrolysed the substrate” value [17] was 30.8% and the “Hydrolysis by Gram negative bacteria” value [18] was “−”. For the same molecule, the “Hydrolysis by Gram positive organisms” value [19] was “−”, the “Gram negative bacteria tested that hydrolysed the substrate” value ([20]; of 120 Gram negative bacteria tested, 300 mg/l, 18 hours) was 68.3% and the “colouration and diffusion of positive strains” value ([20]; positive Gram negative strains, agar) was “clearly visible black chelate which remained restricted to bacterial colonies without diffusion into the surrounding agar”. For the same molecule, the “Hydrolysis by Gram positive organisms” value [21] was “−”, the “Hydrolysis by Gram positive organisms” value [22] was “−” and the “Hydrolysis by Gram negative bacteria” value [23] was “++”. The “Hydrolysis by Gram positive organisms” value [24] was “−”, the “Hydrolysis by Gram negative bacteria” value [25] was “++” and the “Hydrolysis by Gram positive organisms” value ([26]; C. diphtheriae NCTC 3987) was “+”. The “Hydrolysis by Gram positive organisms” value ([26]; C. diphtheriae NCTC 10356) was “++”, the “Hydrolysis by Gram positive organisms” value ([26]; C. diphtheriae NCTC 11397) was “++” and the “Hydrolysis by Gram positive organisms” value ([26]; Corynebacterium diphtheria NEQAS) was “++”. For the same molecule, the “Hydrolysis by Gram positive organisms” value ([27]; Staphylococcus saprophyticus 1) was “++”, the “Hydrolysis by Gram positive organisms” value ([27]; Staphylococcus saprophyticus 2) was “++” and the “Hydrolysis by Gram positive organisms” value ([27]; Staphylococcus saprophyticus 3) was “++”. For the same molecule, the “Hydrolysis by Gram positive organisms” value ([27]; Staphylococcus saprophyticus 4) was “++”, the “Hydrolysis by Gram positive organisms” value ([27]; Staphylococcus saprophyticus 5) was “++” and the “Hydrolysis by Gram negative bacteria” value [28] was “++”. For the same molecule, the “Hydrolysis by Gram negative bacteria” value [29] was “++” and the “Hydrolysis by Gram negative bacteria” value [30] was “−”.
